Data as given in patent publication US12551475B2, “Methods and compositions for treating RNA viral infections” (Model Medicines, Inc., priority 2020, dated 2026).
Where a name gives a salt, the structure may show the parent alone. Read-outs that look alike come from different tables or passages of the source.

Assays:
[1] = system: MCF-7:C cells; details: 10 nM; cited from earlier work
[2] = system: hepatitis B virus (HBV); details: HepG2 2.2.15 cells infected with HBV; cited from earlier work
[3] = system: HBV; details: mouse, in vivo; cited from earlier work
[4] = system: HepG2 2.2.15 cells; details: cited from earlier work
[5] = system: HIV-1; details: MT-4 cells; cited from earlier work
[6] = system: SIHA cells; details: cited from earlier work
[7] = system: Scaber cells; details: cited from earlier work
[8] = system: MCF-7 cells; details: cited from earlier work
[9] = system: MKN45 cells; details: cited from earlier work
[10] = system: HCT116 cells; details: cited from earlier work
[11] = system: COLO205 cells; details: cited from earlier work
[12] = molecular target: transient receptor potential canonical channel 5 (TRPC5) (Homo sapiens, UniProt Q9UL62); details: cited from earlier work
[13] = molecular target: GABAA receptor α1 subunits (Homo sapiens, UniProt P14867); details: cited from earlier work
[14] = system: KM12; details: cited from earlier work
[15] = system: MO-91; details: cited from earlier work
[16] = system: CUTO-3.29; details: cited from earlier work
[17] = system: tropomyosin-related kinases TrkA, TrkB, and TrkC; details: cited from earlier work
[18] = system: isolated peripheral blood mononuclear cells; details: cited from earlier work
[19] = molecular target: lysophosphatidic acyl transferase (LPAAT); details: LPS-activated LPAAT; read-out: IC50 (generation of phosphatidic acid); cited from earlier work
[20] = molecular target: human acidic mammalian chitinase (Homo sapiens, UniProt Q9BZP6); details: cited from earlier work
[21] = molecular target: HIV-2 protease (Human immunodeficiency virus type 2 subtype A, UniProt P04584); details: cited from earlier work
[22] = 20 mg/kg saquinavir with 50 mg/kg ritonavir, mice; cited from earlier work
[23] = molecular target: T1, ACE2 (Homo sapiens, UniProt Q9BYF1); test: ACE2 activity assay; format: biochemical
T1 construct: purchased BPS Bioscience 79923 (assay kit)
Source text: The ACE2 Activity Assay described in this example is designed to measure the exopeptidase activity of ACE2 for screening and profiling applications. The ACE2 assay can be performed in a convenient 96-well format, with purified ACE2, its substrate, and ACE2 buffer for 96 reactions. See https://bpsioscience.com/ace2-inhibitor-screening-assay-kit-79923
ACE2, ACE2 Fluorogenic Substrate, ACE2 buffer, 96-well black microplate. Adjustable micropipettor and sterile tips and Fluorescent microplate reader.
All Samples and Controls were Tested in Duplicate.
• 1. Thawed ACE2 on ice. Upon first thaw, tube containing enzyme was briefly spun to recover full contents of the tube. Note: ACE2 is sensitive to freeze/thaw cycles. • 2. Prepared Enzyme solution (0.5 ng/μl ACE2) by diluting ACE2 in ACE2 Buffer. • 3. Added 20 μl of Enzyme solution (0.5 ng/μl ACE2) to each well designated “Positive Control” and “Test Inhibitor,” and 20 μl of ACE2 buffer to each well designated “Blank.” • 4. Added 5 μl of Test Inhibitor solution to each well designated “Test Inhibitor.” For the wells labeled “Positive Control” and “Blank,” added 5 μl of 10% DMSO in water (Inhibitor buffer). The final concentration of DMSO in the reaction was kept ≤1%. • 5. Added 25 μl of ACE2 Fluorogenic Substrate to all wells. Protected from light and reaction was incubated at room temperature for 60 minutes.
• 6. The fluorescence intensity of the samples (λexcitation=555 nm; λemission=585 nm) was read in an appropriate microplate reader. Data Analysis
All of the enzyme activity assays were performed in duplicates at each concentration. The fluorescent intensity data were analyzed using the computer software Graphpad Prism. In the absence of the compound, the fluorescent intensity (Ft) in each data set was defined as 100% activity. In the absence of the enzyme, the fluorescent intensity (Fb) in each data set was defined as 0% activity. The percent activity in the presence of each compound was calculated according to the following equation: % activity=(F−Fb)/(Ft−Fb), where F=the fluorescent intensity in the presence of the compound.
The values of percentage activity were plotted on a bar graph.

[24] = system: Notch signaling; details: cited from earlier work
[25] = molecular target: γ-secretase; details: cited from earlier work
[26] = molecular target: HIV aspartyl protease (Human immunodeficiency virus type 1 group M subtype B, UniProt P04585); details: cited from earlier work
[27] = system: HT-29 human colon adenocarcinoma cells; details: read-out: IC50 (DNA damage); cited from earlier work
[28] = system: HT-29 human colon adenocarcinoma cells; details: read-out: IC50 (cytotoxicity); cited from earlier work
[29] = molecular target: mitochondrial long-chain 3-ketoacyl thiolase (Homo sapiens, UniProt P55084); details: cited from earlier work
Chain of mitochondrial long-chain 3-ketoacyl thiolase (P55084 34-474): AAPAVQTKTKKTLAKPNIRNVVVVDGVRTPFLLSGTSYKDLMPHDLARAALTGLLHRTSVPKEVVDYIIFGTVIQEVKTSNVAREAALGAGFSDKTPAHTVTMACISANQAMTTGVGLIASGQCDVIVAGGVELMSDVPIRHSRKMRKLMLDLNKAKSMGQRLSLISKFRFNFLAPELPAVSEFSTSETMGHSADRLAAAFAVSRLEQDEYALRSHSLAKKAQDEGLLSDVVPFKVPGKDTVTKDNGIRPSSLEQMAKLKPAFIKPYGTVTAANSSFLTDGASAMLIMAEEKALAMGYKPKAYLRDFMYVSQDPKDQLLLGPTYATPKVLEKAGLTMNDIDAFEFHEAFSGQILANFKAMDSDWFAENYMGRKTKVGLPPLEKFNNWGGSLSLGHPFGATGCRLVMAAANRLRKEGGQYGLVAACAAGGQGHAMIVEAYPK
Chain of mitochondrial long-chain 3-ketoacyl thiolase (P40939 37-763 partner): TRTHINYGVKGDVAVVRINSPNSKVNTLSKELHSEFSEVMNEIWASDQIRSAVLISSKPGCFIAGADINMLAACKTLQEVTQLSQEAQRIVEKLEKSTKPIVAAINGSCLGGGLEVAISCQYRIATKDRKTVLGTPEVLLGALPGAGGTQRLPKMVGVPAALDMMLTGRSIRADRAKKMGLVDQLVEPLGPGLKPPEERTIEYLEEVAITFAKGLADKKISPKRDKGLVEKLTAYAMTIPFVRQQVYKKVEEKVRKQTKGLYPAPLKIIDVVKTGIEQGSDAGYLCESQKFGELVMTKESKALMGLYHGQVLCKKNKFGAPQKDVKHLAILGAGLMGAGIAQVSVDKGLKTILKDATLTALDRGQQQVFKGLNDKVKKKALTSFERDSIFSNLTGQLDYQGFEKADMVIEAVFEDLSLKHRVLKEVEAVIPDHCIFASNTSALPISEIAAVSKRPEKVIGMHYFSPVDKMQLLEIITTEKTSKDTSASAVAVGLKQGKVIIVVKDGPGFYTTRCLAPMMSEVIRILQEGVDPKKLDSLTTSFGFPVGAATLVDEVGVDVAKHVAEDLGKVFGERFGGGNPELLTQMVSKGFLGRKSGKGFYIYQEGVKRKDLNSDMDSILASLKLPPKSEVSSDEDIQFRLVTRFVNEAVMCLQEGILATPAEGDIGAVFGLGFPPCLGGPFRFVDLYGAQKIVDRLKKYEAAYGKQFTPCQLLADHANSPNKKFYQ

T1 sequence (Q9BYF1 18-805): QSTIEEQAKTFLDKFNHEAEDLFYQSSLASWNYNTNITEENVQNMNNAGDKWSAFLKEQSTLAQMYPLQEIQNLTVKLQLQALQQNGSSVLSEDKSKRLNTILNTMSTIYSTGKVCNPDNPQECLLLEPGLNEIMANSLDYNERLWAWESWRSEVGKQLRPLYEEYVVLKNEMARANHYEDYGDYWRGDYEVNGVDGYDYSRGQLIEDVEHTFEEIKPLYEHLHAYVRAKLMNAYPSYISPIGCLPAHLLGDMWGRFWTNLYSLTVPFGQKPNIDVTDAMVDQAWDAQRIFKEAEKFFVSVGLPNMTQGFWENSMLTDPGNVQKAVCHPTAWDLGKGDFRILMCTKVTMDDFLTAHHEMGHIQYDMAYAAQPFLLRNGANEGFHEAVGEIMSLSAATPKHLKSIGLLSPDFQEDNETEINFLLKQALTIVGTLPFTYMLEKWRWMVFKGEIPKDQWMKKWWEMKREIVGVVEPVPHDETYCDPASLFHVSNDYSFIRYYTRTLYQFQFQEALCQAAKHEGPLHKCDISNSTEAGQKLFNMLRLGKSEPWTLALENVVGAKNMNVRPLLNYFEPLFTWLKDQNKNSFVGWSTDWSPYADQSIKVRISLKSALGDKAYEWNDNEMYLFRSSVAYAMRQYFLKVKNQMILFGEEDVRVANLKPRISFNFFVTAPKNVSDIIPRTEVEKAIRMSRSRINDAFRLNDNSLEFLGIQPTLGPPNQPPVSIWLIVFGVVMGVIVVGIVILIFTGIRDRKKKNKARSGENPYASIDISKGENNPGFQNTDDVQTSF
Chain of HIV-2 protease (P04584 514-612 limits assumed): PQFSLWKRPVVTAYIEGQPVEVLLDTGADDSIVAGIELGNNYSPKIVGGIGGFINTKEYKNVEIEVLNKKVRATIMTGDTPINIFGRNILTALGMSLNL
Chain of transient receptor potential canonical channel 5 (TRPC5) (Q9UL62 whole entry, species assumed): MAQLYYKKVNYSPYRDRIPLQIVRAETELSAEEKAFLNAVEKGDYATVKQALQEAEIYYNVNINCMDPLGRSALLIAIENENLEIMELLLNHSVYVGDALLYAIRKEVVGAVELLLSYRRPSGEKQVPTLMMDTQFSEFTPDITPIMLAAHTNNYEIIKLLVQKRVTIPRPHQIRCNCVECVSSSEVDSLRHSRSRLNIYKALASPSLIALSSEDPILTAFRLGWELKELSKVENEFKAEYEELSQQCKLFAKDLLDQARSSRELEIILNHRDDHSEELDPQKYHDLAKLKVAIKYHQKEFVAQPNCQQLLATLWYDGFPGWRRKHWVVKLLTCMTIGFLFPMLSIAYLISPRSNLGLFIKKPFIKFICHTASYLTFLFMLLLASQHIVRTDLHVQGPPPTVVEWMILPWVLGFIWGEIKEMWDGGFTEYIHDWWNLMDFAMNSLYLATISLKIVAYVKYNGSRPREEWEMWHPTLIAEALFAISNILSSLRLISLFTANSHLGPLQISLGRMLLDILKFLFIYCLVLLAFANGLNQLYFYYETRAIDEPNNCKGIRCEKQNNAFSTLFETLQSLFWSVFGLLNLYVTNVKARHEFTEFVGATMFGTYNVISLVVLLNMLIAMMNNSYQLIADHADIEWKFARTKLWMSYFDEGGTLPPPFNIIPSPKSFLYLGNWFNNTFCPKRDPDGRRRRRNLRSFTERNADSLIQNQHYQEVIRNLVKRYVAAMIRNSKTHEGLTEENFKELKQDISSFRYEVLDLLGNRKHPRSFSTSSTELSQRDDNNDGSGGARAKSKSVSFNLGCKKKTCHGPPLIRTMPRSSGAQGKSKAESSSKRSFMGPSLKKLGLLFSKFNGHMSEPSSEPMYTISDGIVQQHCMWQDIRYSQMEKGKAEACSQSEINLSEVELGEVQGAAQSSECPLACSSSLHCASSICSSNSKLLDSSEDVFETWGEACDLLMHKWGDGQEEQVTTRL
Chain of human acidic mammalian chitinase (Q9BZP6 22-476): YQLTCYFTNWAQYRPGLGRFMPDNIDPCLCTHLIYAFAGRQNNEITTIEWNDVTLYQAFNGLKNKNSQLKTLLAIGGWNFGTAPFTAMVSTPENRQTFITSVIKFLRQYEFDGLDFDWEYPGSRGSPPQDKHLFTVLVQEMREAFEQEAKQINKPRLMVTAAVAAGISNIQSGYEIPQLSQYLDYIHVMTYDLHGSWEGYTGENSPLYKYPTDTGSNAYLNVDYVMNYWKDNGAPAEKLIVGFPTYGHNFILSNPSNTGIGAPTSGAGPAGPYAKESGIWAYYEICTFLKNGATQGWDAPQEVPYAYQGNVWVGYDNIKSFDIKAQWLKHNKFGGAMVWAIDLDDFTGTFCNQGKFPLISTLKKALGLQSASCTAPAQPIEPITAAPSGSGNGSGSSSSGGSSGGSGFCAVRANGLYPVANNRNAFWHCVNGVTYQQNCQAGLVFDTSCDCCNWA
Chain of GABAA receptor α1 subunits (P14867 28-456): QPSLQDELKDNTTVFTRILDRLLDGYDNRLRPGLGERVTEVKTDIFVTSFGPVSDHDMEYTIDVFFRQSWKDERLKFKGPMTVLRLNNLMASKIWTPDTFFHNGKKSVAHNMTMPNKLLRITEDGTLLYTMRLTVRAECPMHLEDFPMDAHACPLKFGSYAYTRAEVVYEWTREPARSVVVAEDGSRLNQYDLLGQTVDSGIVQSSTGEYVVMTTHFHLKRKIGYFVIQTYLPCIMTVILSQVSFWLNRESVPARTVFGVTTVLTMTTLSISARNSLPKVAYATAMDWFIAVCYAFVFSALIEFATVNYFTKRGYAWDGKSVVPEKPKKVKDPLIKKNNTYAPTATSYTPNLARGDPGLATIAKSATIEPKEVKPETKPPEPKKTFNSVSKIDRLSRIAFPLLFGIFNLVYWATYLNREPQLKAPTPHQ
Chain of GABAA receptor α1 subunits (P47870 25-512 partner limits assumed): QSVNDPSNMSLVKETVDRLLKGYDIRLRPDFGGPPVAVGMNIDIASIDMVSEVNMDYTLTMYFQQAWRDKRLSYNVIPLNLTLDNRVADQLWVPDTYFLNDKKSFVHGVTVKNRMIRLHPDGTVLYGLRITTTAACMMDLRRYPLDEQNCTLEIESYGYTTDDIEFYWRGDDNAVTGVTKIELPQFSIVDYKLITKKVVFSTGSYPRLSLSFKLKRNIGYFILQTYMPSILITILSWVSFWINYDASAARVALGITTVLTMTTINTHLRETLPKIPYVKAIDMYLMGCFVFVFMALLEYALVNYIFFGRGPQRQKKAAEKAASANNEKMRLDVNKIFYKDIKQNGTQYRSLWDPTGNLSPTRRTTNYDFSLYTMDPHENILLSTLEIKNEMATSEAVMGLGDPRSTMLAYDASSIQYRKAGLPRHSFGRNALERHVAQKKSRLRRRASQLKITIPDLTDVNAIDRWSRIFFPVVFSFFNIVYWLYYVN
Chain of GABAA receptor α1 subunits (P18507 40-467 partner limits assumed): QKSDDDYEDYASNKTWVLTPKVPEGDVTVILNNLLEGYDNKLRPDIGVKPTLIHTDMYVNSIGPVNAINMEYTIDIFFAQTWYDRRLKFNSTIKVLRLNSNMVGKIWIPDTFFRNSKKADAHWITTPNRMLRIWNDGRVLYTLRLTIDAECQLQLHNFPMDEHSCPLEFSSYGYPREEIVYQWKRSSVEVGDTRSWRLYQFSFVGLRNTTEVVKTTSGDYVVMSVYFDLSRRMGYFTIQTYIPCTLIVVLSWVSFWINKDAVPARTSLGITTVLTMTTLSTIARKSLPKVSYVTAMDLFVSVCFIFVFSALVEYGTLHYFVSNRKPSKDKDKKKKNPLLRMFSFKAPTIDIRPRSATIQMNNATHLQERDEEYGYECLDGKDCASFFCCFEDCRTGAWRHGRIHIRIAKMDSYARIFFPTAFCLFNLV

In the case of “1-[[4-[2-(hexahydro-1H-azepin-1-yl)ethoxy]phenyl]methyl]-2-(4-hydroxyphenyl)-3-methyl-1H-indol-5-ol, acetate [Bazedoxifene (acetate)]”, the reduction of growth [1] is listed as 80%.
In the case of `CC(C)(C)C(=O)OCOP(=O)(COCCn1cnc2c(N)ncnc21)OCOC(=O)C(C)(C)C` [Adefovir dipivoxil, 2,2-dimethyl-propanoic acid, 1,1′-[[[[2-(6-amino-9H-purin-9-yl)ethoxy]methyl]phosphinylidene]bis(oxymethylene)]ester], the EC50 [2] is listed as 0.517 µM, the ED50 [3] is listed as 0.2 μmol/kg per day and the CC50 [4] is listed as 540 µM.
In the case of `CC(C)CN(C[C@@H](O)[C@H](Cc1ccccc1)NC(=O)O[C@H]1CCOC1)S(=O)(=O)c1ccc(N)cc1` [Amprenavir, N-[(1S,2R)-3-[[(4-aminophenyl)sulfonyl](2-methylpropyl)amino]-2-hydroxy-1-(phenylmethyl)propyl]-carbamic acid, (3S)-tetrahydro-3-furanyl ester], the IC50 [5] is given as 0.15 µM.
For `CCCCCOC(=O)Nc1nc(=O)n([C@@H]2O[C@H](C)[C@@H](O)[C@H]2O)cc1F` [Capecitabine, 5′-deoxy-5-fluoro-N-[(pentyloxy)carbonyl]-cytidine], the IC50 [6] is listed as 578 µM, the IC50 [7] is listed as 97 µM and the IC50 [8] is listed as over 1000 µM. The IC50 [9] was 994 µM, the IC50 [10] was over 1000 µM and the IC50 [11] was over 1000 µM.
In the case of `Clc1ccc(Cn2c(CN3CCCC3)nc3ccccc32)cc1` [Clemizole, 1-[(4-chlorophenyl)methyl]-2-(1-pyrrolidinylmethyl)-1H-benzimidazole, monohydrochloride], the IC50 [12] is given as 1 to 1.3 µM.
In the case of `CC(=O)N(C)c1cccc(-c2ccnc3c(C(=O)c4cccs4)cnn23)c1` [Indiplon, N-methyl-N-[3-[3-(2-thienylcarbonyl)pyrazolo[1,5-a]pyrimidin-7-yl]phenyl]-acetamide], the EC50 [13] is given as 0.0026 µM.
For `O=C(Nc1cnn2ccc(N3CCC[C@@H]3c3cc(F)ccc3F)nc12)N1CC[C@H](O)C1` [LOXO-101, (3S)—N-[5-[(2R)-2-(2,5-difluorophenyl)-1-pyrrolidinyl]pyrazolo[1,5-a]pyrimidin-3-yl]-3-hydroxy-1-pyrrolidinecarboxamide], the IC50 [14] is listed as under 0.01 µM, the IC50 [15] is listed as under 0.01 µM and the IC50 [16] is listed as under 0.1 µM. The IC50 [17] was 0.002 to 0.02 µM.
In the case of `CC(=O)CCCCn1c(=O)c2c(ncn2C)n(C)c1=O` [Pentoxifylline, 3,7-dihydro-3,7-dimethyl-1-(5-oxohexyl)-1H-purine-2,6-dione], the IC50 [18] is given as 85 µM, the IC50 [19] is given as 500 µM and the IC50 [20] is given as 49 µM.
For `CC(C)(C)NC(=O)[C@@H]1C[C@@H]2CCCC[C@@H]2CN1C[C@@H](O)[C@H](Cc1ccccc1)NC(=O)[C@H](CC(N)=O)NC(=O)c1ccc2ccccc2n1.CS(=O)(=O)O` [Saquinavir, (2S)—N^1—[(1S,2R)-3-[(3S,4aS,8aS)-3-[[(1,1-dimethylethyl)amino]carbonyl]octahydro-2(1H)-isoquinolinyl]-2-hydroxy-1-(phenylmethyl)propyl]-2-[(2-quinolinylcarbonyl)amino]-butanediamide, monomethanesulfonate], the Ki [21] is given as under 0.0001 µM and the increase of bioavailability [22] is given as 325 fold.
With `CC(C)[C@H](O)C(=O)N[C@@H](C)C(=O)N[C@@H]1C(=O)N(C)CCc2ccccc21` [Semagacestat, (2S)-2-hydroxy-3-methyl-N-[(1S)-1-methyl-2-oxo-2-[[(1S)-2,3,4,5-tetrahydro-3-methyl-2-oxo-1H-3-benzazepin-1-yl]amino]ethyl]-butanamide] the “ACE2 Activity (Fluorescence count) Repeat 1” value ([23]; Semagacestat 0.00586 μM, Repeat 1) was 16794, the activity at 0.00586 µM ([23]; Semagacestat 0.00586 μM, Repeat 1, read-out: % Activity Repeat 1) was 99% and the “ACE2 Activity (Fluorescence count) Repeat 2” value ([23]; Semagacestat 0.00586 μM, Repeat 2) was 17665. The activity at 0.00586 µM ([23]; Semagacestat 0.00586 μM, Repeat 2, read-out: % Activity Repeat 2) was 104%, the “ACE2 Activity (Fluorescence count) Repeat 1” value ([23]; Semagacestat 0.0117 μM, Repeat 1) was 17480 and the activity at 0.0117 µM ([23]; Semagacestat 0.0117 μM, Repeat 1, read-out: % Activity Repeat 1) was 103%. The “ACE2 Activity (Fluorescence count) Repeat 2” value ([23]; Semagacestat 0.0117 μM, Repeat 2) was 17772, the activity at 0.0117 µM ([23]; Semagacestat 0.0117 μM, Repeat 2, read-out: % Activity Repeat 2) was 105% and the “ACE2 Activity (Fluorescence count) Repeat 1” value ([23]; Semagacestat 0.0234 μM, Repeat 1) was 17334. For the same compound, the activity at 0.0234 µM ([23]; Semagacestat 0.0234 μM, Repeat 1, read-out: % Activity Repeat 1) was 102%, the “ACE2 Activity (Fluorescence count) Repeat 2” value ([23]; Semagacestat 0.0234 μM, Repeat 2) was 17846 and the activity at 0.0234 µM ([23]; Semagacestat 0.0234 μM, Repeat 2, read-out: % Activity Repeat 2) was 105%. For the same compound, the “ACE2 Activity (Fluorescence count) Repeat 1” value ([23]; Semagacestat 0.188 μM, Repeat 1) was 16603, the activity at 0.188 µM ([23]; Semagacestat 0.188 μM, Repeat 1, read-out: % Activity Repeat 1) was 97% and the “ACE2 Activity (Fluorescence count) Repeat 2” value ([23]; Semagacestat 0.188 μM, Repeat 2) was 16796. It also gave an activity at 0.188 µM ([23]; Semagacestat 0.188 μM, Repeat 2, read-out: % Activity Repeat 2) of 99%, an activity at […] ([23]; Semagacestat 0.75 μM, Repeat 1, read-out: % Activity Repeat 1) of 85% and an activity at […] ([23]; Semagacestat 0.75 μM, Repeat 2, read-out: % Activity Repeat 2) of 98%. The activity at […] ([23]; Semagacestat 1.5 μM, Repeat 1, read-out: % Activity Repeat 1) was 78%, the activity at […] ([23]; Semagacestat 1.5 μM, Repeat 2, read-out: % Activity Repeat 2) was 85% and the “effect on ACE2 activity (in words)” value ([23]; test range 0.0029-1.5) was “inhibited ACE2 activity”. For the same compound, the IC50 [24] was 0.0141 µM, the IC50 ([25]; Aβ38, read-out: IC50 (production of Aβ38)) was 0.012 µM and the IC50 ([25]; Aβ40, read-out: IC50 (production of Aβ40)) was 0.0121 µM. For the same compound, the IC50 ([25]; Aβ42, read-out: IC50 (production of Aβ42)) was 0.0109 µM.
In the case of `CCC[C@@]1(CCc2ccccc2)CC(O)=C([C@H](CC)c2cccc(NS(=O)(=O)c3ccc(C(F)(F)F)cn3)c2)C(=O)O1` [Tipranavir, N-[3-[(1R)-1-[(6R)-5,6-dihydro-4-hydroxy-2-oxo-6-(2-phenylethyl)-6-propyl-2H-pyran-3-yl]propyl]phenyl]-5-(trifluoromethyl)-2-pyridinesulfonamide], the Ki [26] is given as under 0.001 µM.
For `CC[C@@]1(O)C(=O)OCc2c1cc1n(c2=O)Cc2cc3c(CN(C)C)c(O)ccc3nc2-1` [Topotecan, 10-[(dimethylamino)methyl]-4S-ethyl-4,9-dihydroxy-1H-pyrano[3′,4′:6,7]indolizino[1,2-b]quinoline-3,14(4H,12H)-dione, monohydrochloride], the IC50 [27] is given as 0.28 µM and the IC50 [28] is given as 0.033 µM.
In the case of `COc1ccc(CN2CCNCC2)c(OC)c1OC` [Trimetazidine (hydrochloride), 1-[(2,3,4-trimethoxyphenyl)methyl]-piperazine, dihydrochloride], the IC50 [29] is listed as 0.075 µM.
